Test: In vitro sustained-release test (dialysis bag, phosphate buffer, UV 287 nm)
Format: physicochemical
Conditions: after 24 h (24h以后); phosphate buffer pH 6.86, 37±0.5 ℃, 100 r/min

CC[C@H]1OC(=O)C[C@@H](O)[C@H](C)[C@@H](O[C@@H]2O[C@H](C)[C@@H](O)[C@H](N(C)C)[C@H]2O)[C@@H](CCN2C[C@H](C)C[C@H](C)C2)C[C@@H](C)C(=O)/C=C/C(C)=C/[C@@H]1CO[C@@H]1O[C@H](C)[C@@H](O)[C@@H](OC)[C@H]1OC [替米考星原粉, 替米考星]
release rate: > 95%

— patent CN105311047A, “一种替米考星药物包合物及其制备和应用” (Luoyang Huizhong Animal Medicine Co Ltd, priority 2014, dated 2016)
